Assay results from patent US9891237B2, “Fluorescent sensor for metal cation detection based on 2-(2′-hydroxyphenyl)benzazole containing a Schiff base moiety” (priority 2013, dated 2018).

Key:
[1] = test system: human mesenchymal stem cells (hMSCs); experiment: Confocal fluorescence imaging of intracellular Cr^3+ and Al^3+ with sensor 1; format: cell-based
Excerpt: FIG. 15A provides a confocal fluorescence images of Human mesenchymal stem cells (hMSCs) excited with a Diode laser (405 nm) on an Olympus FV-1000 laser scanning microscope. The images were collected at bright field. […]
FIG. 15B provides a confocal fluorescence images of Human mesenchymal stem cells (hMSCs) excited with a Diode laser (405 nm) on an Olympus FV-1000 laser scanning microscope. The images were collected at bright field. […] 15E was collected from 535-565 nm.
FIG. 15C provides a confocal fluorescence images of Human mesenchymal stem cells (hMSCs) excited with a Diode laser (405 nm) on an Olympus FV-1000 laser scanning microscope. The images were collected at bright field. […] 15F was collected from 505-525 nm
FIG. 15D provides a confocal fluorescence images of Human mesenchymal stem cells (hMSCs) excited with a Diode laser (405 nm) on an Olympus FV-1000 laser scanning microscope. The images were collected fluorescent channels. […]
FIG. 15E provides a confocal fluorescence images of Human mesenchymal stem cells (hMSCs) excited with a Diode laser (405 nm) on an Olympus FV-1000 laser scanning microscope. The images were collected fluorescent channels. […] 15E was collected from 535-565 nm.
FIG. 15F provides a confocal fluorescence images of Human mesenchymal stem cells (hMSCs) excited with a Diode laser (405 nm) on an Olympus FV-1000 laser scanning microscope. The images were collected fluorescent channels. […] 15F was collected from 505-525 nm
The potential application of 1 for both Cr^3+ and Al^3+ in biological samples was examined by using confocal fluorescence microscopy. […] Bright-field measurements confirmed that the cells, after being treated with Cr^3+/Al^3+ and 1, were viable throughout the imaging experiments. […] Response to Cr^3+ and Al^3+ ions with distinctly different colors (yellow-green and cyan, respectively) from the cell samples raised the prospect that the Cr^3+ and Al^3+ ions could be simultaneously determined and distinguished

[2] = UV-vis and fluorescence response of sensor 1 to Al^3+ in H2O:EtOH=8:2
Excerpt: (§1) (Cr: ΦF=0.63; Al: ΦF=0.31).

[3] = Absorption and fluorescence of free sensor 1 in aqueous medium; format: physicochemical
Method: Sensor 1 was synthesized by refluxing the corresponding dialdehyde (as described in W. Chen, Y. Xing, and Y. Pang, Org. Lett., 2011, 13, 1262) with hydrazinopyridine in EtOH for 2 hours, and was collected as yellow solid in >90% yield.
as §1

[4] = Fluorescence response of sensor 1 to Fe^3+ in H2O:EtOH=8:2
Excerpt: as §1

[5] = UV-vis and fluorescence response of sensor 1 to mono- and divalent metal ions
Excerpt: as §1

[6] = UV-vis absorption and fluorescence response/titration of 4 with Zn^2+ in EtOH/HEPES; format: binding
Method: (§2) FIG. 2 provides an absorbance spectra of 4 (10 μM) in EtOH/HEPES (10 mM) (1:1) (pH=7.2), upon addition of 5 equiv. of different cations.
(§3) FIG. 3 provides a fluorescence spectra of 4 (10 μM) in EtOH:HEPES=1:1 (pH=7.2) upon addition of 5 equiv. of different ions.
(§4) The binding property of 4 to Zn^2+ cation was examined in EtOH/HEPES (FIG. 2). As the Zn^2+ cation was added, a new absorption band was generated at about 450 nm.
(§5) The ligand 4 gave a weak fluorescence peak at 580 nm (φfl=0.05). […] NIR emission was relatively stronger in pure methanol. The green fluorescence turn-on could be easily observed, making it also useful for naked eye detection (FIG. 3). […] In other words, the probe molecule 4 is silent to Cd^2+ cation, as its binding could not remove the phenolic proton (a necessary step to simultaneously shift the emission and turn on the ESIPT for NIR emission).
(§6) In order to clarify the interaction of 4 with different metal ions, the UV-vis absorption and fluorescence spectra of 4 (10 μM in EtOH:H2O=1:1 solutions) were studied by addition of 5 equiv. of different cations.
A It is important to note that, while the ligand 4 can bind Zn^2+ cation well, the same is not true for the Cd^2+ cation, although the atomic configuration ([Ar]3d^10 for Zn^2+ and [Kr]4d^10 for Cd^2+). On the basis of quick disappearance of the —OH signal at ˜10 ppm (^1H NMR in FIG. 5), the initial step might involve a weak interaction of metal cation with the imine —CH═N—, forming intermediate 5. […] The Zn^2+ cation in 6a could further interact with the adjacent hydroxyl group to form the fused 6-membered ring “B”, which requires twisting of the “HBO” fragment from the Schiff base fragment (ring A).

[7] = UV-vis absorption and fluorescence response of 4 to Cd^2+; format: binding
Method: as §2, §3, §4, §5, §6
When Cd^2+ was used, the interaction pattern appeared to be quite different. […] Therefore, the equilibrium between 6b and 8 might occur without forming the fused rings A-B in 4-Cd. […]

[8] = Fluorescence of free ligand 4; format: physicochemical
Method: as §3, §5, §6

[9] = UV-vis absorption and fluorescence response of 4 to 5 equiv. of different cations
Method: as §2, §3, §5, §6

[10] = test system: human cancer cells (HepG2) and human umbilical vein endothelial cells (HUVECs); experiment: Confocal fluorescence imaging of intracellular Zn^2+ with sensor 4; format: cell-based
Method: FIG. 8A provides confocal fluorescence images of Human mesenchymal stem cells (hMSCs) excited with a 488 laser. The image were collected at bright field on an Olympus FV1000-Filter Confocal Microscopy. a→b: the cells were incubated with dye 4 for 60 mins at 37° C.
FIG. 8B provides confocal fluorescence images of Human mesenchymal stem cells (hMSCs) excited with a 488 laser. The images were collected at green channel (535-565 nm) on an Olympus FV1000-Filter Confocal Microscopy. a→b: the cells were incubated with dye 4 for 60 mins at 37° C.
(§7) FIG. 8C provides confocal fluorescence images of Human mesenchymal stem cells (hMSCs) excited with a 488 laser. The images were collected at bright field on an Olympus FV1000-Filter Confocal Microscopy. c→d: the cells were first treated with Zn(OAc)2 (30 μM) for 30 mins and further exposed to dye 4 (10 μM) for another 60 mins at 37° C.
as §7, with “8D” for “8C”, “green channel (535-565 nm)” for “at bright field”, “Microscopy.” for “Microscopy. c→d:”
To illustrate the potential biological application, sensor 4 was applied to visualize intracellular Zn^2+ in both human cancer cells (HepG2) and human umbilical vein endothelial cells (HUVECs) (See FIGS. 8A-D). FIGS. 8A-D show confocal fluorescence images of Human mesenchymal stem cells (hMSCs) excited with a 488 laser. The images were collected at bright field (a and c) and green channel (535-565 nm; b and d) on an Olympus FV1000-Filter Confocal Microscopy. a→b: the cells were incubated with dye 4 for 60 mins at 37° C.; c→d: the cells were first treated with Zn(OAc)2 (30 μM) for 30 mins and further exposed to dye 4 (10 μM) for another 60 mins at 37° C. For this purpose, cells were first incubated with 30 μM of Zn^2+ for 30 mins and then further treated with 10 μM dye 4 for another […]. […]

[11] = Absorption, emission and Stokes' shift of ligands and their zinc complexes (Table 1); format: physicochemical
[12] = UV-vis absorption and fluorescence response of 4 to Al^3+
Method: as §2, §3, §4, §5, §6

[13] = 10 μM in EtOH:H2O=1:1, 5 equiv.

Oc1c(C=NNc2ccccn2)cc(C=NNc2ccccn2)cc1-c1nc2ccccc2o1 [Sensor 1]
cell permeability [1]: permeable to cells
intracellular fluorescence, control without added metal ions ([1]; 10 μM dye): negligible intracellular fluorescence
cell viability during imaging (bright-field) ([1]; after treatment with Cr^3+/Al^3+ and 1): viable
intracellular fluorescence after Al^3+ ([1]; then 10 μM sensor 30 minutes): significant increase in the fluorescence
intracellular fluorescence after Cr^3+ ([1]; then 10 μM sensor 30 minutes): significant increase in the fluorescence
Stokes' shift of the Cr^3+ complex emission: 195 nm
new π-π* absorption band upon addition of Cr^3+: about 358 nm
selectivity as chemosensor for Cr^3+ (10 equiv. other metal ions, then 10 equiv. Cr^3+): highly selective
fluorescence response upon addition of Cr^3+ (H2O:EtOH=8:2): immediate fluorescence turn-on
ΦF with Cr^3+ (H2O:EtOH=8:2): 0.63
emission λem with Cr^3+ (H2O:EtOH=8:2, yellow green): ~556 nm
Stokes' shift of the Al^3+ complex emission [2]: 170 nm
stability of fluorescence with Al^3+ over time [2]: quite stable
fluorescence response upon addition of Al^3+ ([2]; H2O:EtOH=8:2): immediate fluorescence turn-on
ΦF with Al^3+ ([2]; H2O:EtOH=8:2): 0.31
emission λem with Al^3+ ([2]; H2O:EtOH=8:2, blue-green): ~527 nm
absorption major peak (π-π*) [3]: 315 nm
absorption minor peak (n-π*) [3]: 432 nm
Stokes' shift ([3]; free sensor, H2O:EtOH=8:2): 180 nm
ΦF ([3]; free sensor, H2O:EtOH=8:2): 0.1
fluorescence response upon addition of Fe^3+ [4]: immediate fluorescence turn-on
time to quenching of fluorescence with Fe^3+ [4]: ≤ 5 min
fluorescence effect of Mn^2+, Ni^2+, Pb^2+, Ba^2+, Ag^+, Hg^2+ ([5]; 10 equiv.): slight quenching
response to Ca^2+, Mg^2+, Na^+ and K^+ ([5]; 10 equiv.): negligible response
change in UV-vis spectra on addition of M^+ and M^2+ cations ([5]; 10 equiv., except Cu^2+): almost no change
fluorescence effect of Cu^2+ ([5]; 10 equivalents): quenched the fluorescence
fluorescence change on addition of divalent metal ions ([5]; 10 equivalents, H2O:EtOH=8:2, except Cu^2+): negligible fluorescence change

Cc1ccc2nc(-c3cc(O)c(C=NNc4ccccn4)cc3O)oc2c1 [Sensor 4]
φfl upon addition of Zn^2+ ([6]; 1:1 EtOH/H2O): 0.26
new absorption band upon Zn^2+ addition ([6]; EtOH/HEPES): about 450 nm
association constant Ka ([6]; from the fluorescence titration data): 228000 M⁻¹
Stokes' shift of NIR emission ([6]; upon Zn^2+ binding): ~260 nm
NIR emission peak upon addition of Zn^2+ (keto tautomer) ([6]; upon addition of Zn^2+): ~720 nm
emission peak upon addition of Zn^2+ (enol tautomer) ([6]; upon addition of Zn^2+): 545 nm
selectivity toward Zn^2+ binding ([6]; versus other cations): excellent selectivity
fluorescence response to Cd^2+ cation [7, 13]: no observable fluorescence response
binding to Cd^2+ cation ([7]; absorption, EtOH/HEPES): weak binding
fluorescence peak of the ligand [8]: 580 nm
φfl [8]: 0.05
dual emission on addition of other cations (K^+, Na^+, Ag^+, Cd^2+, Ca^2+, Mg^2+, Pb^2+, Ni^2+, Hg^2+, Co^2+, Cu^2+, Cr^3+, Fe^3+, Al^3+) [9]: did not induce the dual emissions at 545 and 720 nm
fluorescence effect of Ag^+, Co^2+, Ni^2+ and Cu^2+ [9, 13]: quenched the fluorescence
fluorescence effect of Cr^3+, Fe^3+ and Al^3+ [9, 13]: slightly increased the fluorescence
red shift of fluorescence signal on addition of Cr^3+, Fe^3+ and Al^3+ [9, 13]: 25-37 nm
response to K^+, Na^+, Ca^2+ ions [9, 13]: no response
cell permeability [10]: permeable to cells
fluorescence in cells treated with Zn^2+ and the dye ([10]; 30 μM Zn^2+ 30 mins, then 10 μM dye): strong fluorescence
fluorescence in cells treated with only the dye ([10]; dye only, green channel 535-565 nm, 488 laser): very weak fluorescence
Absorption λmax (nm) [11]: 413 nm
Stokes' shift [11]: 6971 cm⁻¹
Emission λem (nm) ([11]; first or only emission peak): 580 nm
Stokes' shift ([11]; value in brackets): 167 nm
enhanced emission induced by Al^3+ [12]: ~610 nm
bathochromic shift of absorption on addition of other cations such as Al^3+ ([12]; EtOH/HEPES): did not cause a notable bathochromic shift
